{"source": "patent US20120029031A1", "about": "“METADOXINE FOR USE AS INHIBITOR OF HEPATIC FIBROSIS” (LABORATORI BALDACCI SPA, priority 2009, published 2012)", "system": "immortalized human fibroblasts", "experiment": "Proliferation of immortalized human fibroblasts (MTT, Mosmann method)", "type": "cell-based", "conditions": "MTT O.D. as percent of control; tested range 10^−11M to 10^−3M; measured up to 120 h, treatments repeated every 24 h", "procedure": "The methods used allow evaluating the effect of substances provided with potential antifibrotic activity on the proliferation of fibroblasts.\nA line of immortalized human fibroblasts was used, maintained in a culture in a suitable medium.\nIn order to carry out the proliferation experiments, the fibroblasts were detached from the flask by means of trypsinization, counted and distributed on 96-well flat-bottom plates at the concentration of 2000 cells/100 μl medium.\nScalar concentrations of metadoxine were added (range of concentration from 10^−11M to 10^−3M).\nThe plates were maintained in CO2 incubator at 37° C. The proliferation of the cells was measured at 24 h intervals up to 120 h by using the Mosmann method (10), based on the spectrophotometer determination of the conversion of MTT [3-(4,5 dimethylthiazole-2-yl)-2-5 diphenyltetrazolium bromide] to its blue reduction product, formazan, by mitochondrial enzymes of the metabolically active cells.\nThe optical densities (O.D.) were determined by means of the Titertek Multiscan (Flow) spectrophotometer with 540 nm filter.\nThe O.D.s of the samples are expressed as percentages of the samples with respect to the control group."}
{"compound": "Cc1ncc(CO)c(CO)c1O.O=C1CC[C@@H](C(=O)O)N1", "note": "[Metadoxine, Pyridoxol L-2-pyrrolidone-5-carboxylate]", "values": [{"measurement": "concentration at which metadoxine inhibits the fibrogenic activity / growth of fibroblasts", "value": "10^−5 M"}]}
